Reference: US8436171B2, “Amino substituted pyrazines as inhibitors or protein kinases” (Akinion Pharmaceuticals AB, priority 2008, dated 2013)
Structures can show the parent of a compound that is named as a salt.

What was measured:
[1] = molecular target: T1, recombinant human FLT3 (Homo sapiens, UniProt P36888); test: In vitro FLT3 kinase assay (IMAP fluorescence polarization); format: biochemical; conditions: mean, n = 4-8; ATP 100 μM; FAM-CSKtide 100 nM; read-out: IC50 (nM), typical mean IC50 values determined in the FLT3 kinase assay
T1 construct: N-terminal GST tagged, amino acids 564-end; GST (N); purchased Upstate 14-500
T1 sequence (P36888 564-993 limits assumed): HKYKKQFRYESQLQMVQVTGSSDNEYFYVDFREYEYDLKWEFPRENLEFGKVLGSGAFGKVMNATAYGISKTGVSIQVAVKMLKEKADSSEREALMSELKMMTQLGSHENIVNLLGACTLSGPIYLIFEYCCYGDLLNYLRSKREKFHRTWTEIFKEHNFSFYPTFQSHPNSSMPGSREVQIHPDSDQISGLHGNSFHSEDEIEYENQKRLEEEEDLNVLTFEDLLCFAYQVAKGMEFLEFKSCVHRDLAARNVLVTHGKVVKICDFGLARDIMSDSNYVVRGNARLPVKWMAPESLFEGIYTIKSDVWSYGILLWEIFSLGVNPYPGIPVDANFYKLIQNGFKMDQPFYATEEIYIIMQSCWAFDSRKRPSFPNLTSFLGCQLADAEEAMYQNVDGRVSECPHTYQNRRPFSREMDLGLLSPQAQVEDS
Procedure: The compounds according to the invention were evaluated for their inhibition of FLT3 by the following method:
In Vitro FLT3 Kinase Assay
An enzyme inhibition assay for the tyrosine kinase domain of FLT3 was established using a fluorescence polarization technique, Immobilized Metal Ion Affinity-Based Fluorescence Polarization (IMAP) from Molecular Devices.
Briefly: kinase activity is measured by incubating a fluorescent peptide substrate with the kinase domain. After completion of the kinase reaction a binding buffer is added. Upon phosphorylation of the substrate, the fluorescent peptide gains the ability to bind to a metal-coated nanoparticle. When the substrate is bound to the nanoparticle, the rotational is speed of the peptide is reduced, and thus the fluorescence polarization (fp) becomes high. Compounds inhibiting the kinase activity of the enzyme will result in a low degree of phosphorylated substrate and a low fp-signal.
IMAP Buffer kit with Progressive Binding System (Molecular Devices, #R8124): Reaction buffer: 10 mM Tris-HCL pH 7.2 with 10 mM MgCl2, 0.05% NaN3 and 0.01% Tween 20. Prior to use DTT was added to 1 mM DTT final concentration (complete reaction buffer).
Binding solution was prepared from buffer kit according to the manufactures recommendations. Binding Reagent was diluted 1:1500 in 40% Binding buffer A and 60% Binding buffer B.
FLT3 enzyme used was recombinant human FLT3 from Upstate (#14-500) 7.2 U/ml, N-terminal GST tagged, amino acids 564-end.
Substrate peptide used: FAM-CSKtide from Molecular Devices (#R7269) 20 μM, 5FAM-KKKKEEIYFFFG-NH2. […]
• Pipette into 96-well black ½ area plate: • 5 μl compound dilution or vehicle • 5 μl substrate peptide (400 nM) • 5 μl enzyme (0.05 U/ml) or complete reaction buffer for non specific background (NSB) • 5 μl ATP (400 μM) • Cover the plate and incubate at room temperature with gentle agitation II. […] Fluorescence Polarization analysis: • Measure fluorescein using a plate reader (Analyst AD) excitation wave length 485 and emission wave length 530, reading with integration time of 0.1 sec. […]

[2] = system: AML cell-line MV4-11 (FLT3-ITD); test: Viability and proliferation assay in AML cell line MV4-11; format: cell-based; conditions: Homo sapiens; MV4-11 cells, 72 hours, viable cells by flow cytometry; read-out: Cell data MV4-11 (nM), EC50 values determined in AML-cell line
Procedure: AML cell-line MV4-11 carries the FLT3-internal tandem duplication. This cell-line has been widely used for evaluating the effect of FLT3-kinase inhibitors on viability and proliferation.
Briefly, cells are seeded at a low density into 96-well plates. Serial dilution of compounds is added and the cells are incubated for 72 hours. Total number of viable cells is measured using flow cytometry at the end of treatment, and the effect of the compounds is calculated as % inhibition compared to vehicle treated cells.
All cells were cultured under standard cell culture conditions, at 37° Celsius in an atmosphere of 5% CO2 in 90% humidity.
AML-cell line MV4-11 was cultured in DMEM Glutamax high glucose ([…] glucose) supplemented with 10% Fetal Bovine Serum (FBS) from Invitrogen. Cells were subcultured twice weakly, growing to a density of approx 2 million cells per ml prior to subcultivation.
For viability determination, 3000-5000 cells were seeded in 50 microliter culture medium into a 96-well plate. Serial dilutions 1:3 of compounds from 10 mM DMSO stock were made in serumfree culture medium supplemented with penicillin and streptomycin. 50 microliter of the serial dilutions were added to the cell-suspension. The final concentration of compounds was from 5 micromolar to 0.8 nM, or from 500 nM to 0.08 nM respectively. The DMSO concentration was kept constant at 0.05%.
At the end of the treatment, 100 microliter viability reagent (Guava ViaCount) was added to each well and number of cells and viability was determined using flow cytometry (Guava 96-well ViaCount assay). Typically the vehicle treated (0.05% DMSO) cell-line cells had doubled three times during the experiment.
% Survival was calculated compared to the vehicle treated cells at the end of experiment. EC50 values were determined using the equation (A+((B−A)/(1+((C/x)^D)))) where A equals min, B equals max, C equals EC50 and D equals Hill slope.

Row | IC50 [1] | EC50 [2] | SMILES
1 | 60 nM | 184 nM | Nc1ncc(-c2ccncc2)nc1NCCc1c[nH]c2ccccc12 [Example 15, N3-[2-(1H-Indol-3-yl)ethyl]-5-pyridin-4-ylpyrazine-2,3-diamine, trifluoroacetate]
2 | 560 nM | 373 nM | c1cc(-c2cncc(Nc3ccc4cc[nH]c4c3)n2)ccn1 [Example 32, N-(6-Pyridin-4-ylpyrazin-2-yl)-1H-indol-6-amine]

Row | SMILES | IC50 [1] | EC50 [2]
3 | NC(=O)c1ccc(-c2cncc(N[C@H]3CC[C@H](O)CC3)n2)cc1 [Example 28, 4-{6-[(trans-4-Hydroxycyclohexyl)amino]pyrazin-2-yl}benzamide, trifluoroacetate] | 159 nM | 178 nM
